Laboratory results: patent publication US20090143454A1, “Pyrazoline Derivatives and Their Use As Pesticides” (BAYER CROPSCIENCE AG, priority 2001, published 2009)

Columns and labels:
Format in all cases: in vivo
[1] = test system: Diabrotica balteata larvae; assay: Diabrotica test (larvae in soil); details: 20 ppm (mg/l soil), Diabrotica balteata larvae on maize in treated soil
[2] = test system: caterpillars of the diamond back moth (Plutella xylostella); assay: Plutella test; details: 500 ppm, cabbage leaves dipped
Experimental: (§1) To produce a suitable preparation of active compound, 1 part by weight of active compound is mixed with the stated amounts of solvent and emulsifier, and the concentrate is diluted with emulsifier-containing water to the desired concentration.
Cabbage leaves (Brassica oleracea) are treated by being dipped into the preparation of active compound of the desired concentration and are populated with caterpillars of the diamond back moth (Plutella xylostella) while the leaves are still moist.
(§2) After the desired period of time, the kill in % is determined. 100% means that all caterpillars have been killed; 0% means that none of the caterpillars have been killed.

[3] = test system: caterpillars of the army worm (Spodoptera exigua); assay: Spodoptera exigua test; details: 500 ppm, cabbage leaves dipped
Experimental: as §1
Cabbage leaves (Brassica oleracea) are treated by being dipped into the preparation of active compound of the desired concentration and are populated with caterpillars of the army worm (Spodoptera exigua) while the leaves are still moist.
as §2

[4] = test system: Boophilus microplus resistent/SP-resistent Parkhurst-strain, adult sucked female; assay: Test with Boophilus microplus resistent/SP-resistent Parkhurst-strain; details: 100 μg animal, injected into the abdomen; oviposition of fertile eggs after 7 days
Experimental: […] More dilute concentrations are prepared by dilution with the same solvent.
The test is carried out in 5-fold determination. […] The control of activity is made after 7 days for oviposition of fertile eggs. Eggs whose fertility cannot be seen from the outside are stored in glass tubes in a climate chamber until the larvae have been hatched. An activity of 100% means, that no tick has hatched fertile eggs.

[5] = test system: adult Musca domestica, strain Reichswald (OP, SP, carbamate-resistent); assay: Test with flies (Musca domestica); details: 100 ppm; treated filter paper; time not given
Experimental: 20 mg of active compound are dissolved in 1 ml of dimethyl sulphoxide. More dilute concentrations are prepared by dilution with distilled water.
2 ml of the preparation of active compound are pipetted onto a filter paper dish (Ø 9.5 cm), which are placed in a Petri dish of corresponding diameter. After drying of the filter dishes 25 test animals are transferred in the Petri dishes and covered.
After 1, 3, 5, 24 and 48 hours (or after the times given in the tables below) the activity of the preparation of active compound is determined. 100% means, that all flies have been killed, 0% means, that none of the flies have been killed.

## N#Cc1cnn(C2CN(C(=O)Nc3ccc(SC(F)(F)F)cc3)N=C2c2ccc(Cl)cc2)c1 (centres unmarked) [drawing 37]
[1]
  Kill rate in % after 10 d: 100%

## N#Cc1cnn(C2CN(C(=O)Nc3ccc(SC(F)(F)F)cc3)N=C2c2ccc(Cl)cc2)c1 (centres unmarked) [drawing 56]
[2]
  Kill rate in % after 7 d: 100%

## N#Cc1cnn(C2CN(C(=O)Nc3ccc(OC(F)(F)F)cc3)N=C2c2ccc(Cl)cc2)c1 (centres unmarked) [drawing 58]
[3]
  Kill rate in % after 7 d: 100%

## N#Cc1cnn(C2CN(C(=O)Nc3ccc(C(F)(F)F)cc3)N=C2c2ccc(Cl)cc2)c1 (centres unmarked) [drawing 59]
[3]
  Kill rate in % after 7 d: 100%

## N#Cc1cnn(C2CN(C(=O)Nc3ccc(SC(F)(F)F)cc3)N=C2c2ccc(Cl)cc2)c1 (centres unmarked) [drawing 60]
[3]
  Kill rate in % after 7 d: 100%

## N#Cc1cnn(C2CN(C(=O)Nc3ccc(S(=O)(=O)C(F)(F)F)cc3)N=C2c2ccc(Br)cc2)c1 (centres unmarked) [drawing 91]
[4]
  activity/kill rate in %: 100%

## N#CCN(C(=O)N1CC(n2cc(C#N)cn2)C(c2ccc(Cl)cc2)=N1)c1ccc(OC(F)(F)F)cc1 (centres unmarked) [drawing 92]
[4]
  activity/kill rate in %: 100%

## N#Cc1cnn(C2CN(C(=O)Nc3ccc(OC(F)(F)F)cc3)N=C2c2ccc(Cl)cc2)c1 (centres unmarked) [drawing 93]
[5]
  activity/kill rate in %: 30%

## N#Cc1cnn(C2CN(C(=O)Nc3ccc(C(F)(F)F)cc3)N=C2c2ccc(Cl)cc2)c1 (centres unmarked) [drawing 94]
[5]
  activity/kill rate in %: 30%

## N#Cc1cnn(C2CN(C(=O)Nc3ccc(OC(F)(F)F)cc3)N=C2c2ccc(Br)cc2)c1 (centres unmarked) [drawing 95]
[5]
  activity/kill rate in %: 75%

## N#CCN(C(=O)N1CC(n2cc(C#N)cn2)C(c2ccc(Cl)cc2)=N1)c1ccc(OC(F)(F)F)cc1 (centres unmarked) [drawing 96]
[5]
  activity/kill rate in %: 60%
